In article PMC9014412 (Journal of medicinal chemistry, 2022):

Experiments:
[1] = target: HDAC3 (Homo sapiens, UniProt O15379); assay: HDAC3 degradation by quantitative western blotting in HCT116 cells; details: HCT116 cells, 24 h, 0.1, 1 and 10 μM; compared with 1 at 10 μM
Procedure: (§1) Initially, each PROTAC was tested at 0.1, 1, and 10 μM in HCT116 cells for 24 h; then, cell extracts were prepared and evaluated for HDAC1/2 and 3 degradation by quantitative western blotting.
(§2) This cell line was incubated at 37 °C with 5% CO2.
(§3) HCT116 cells were seeded into 6-well plates (4 × 10^5 cells/well for 24 h, 2 × 10^5 cells/well for 48 h) for 24 h and then treated with DMSO or compounds at the indicated concentrations in fresh medium (5 mL total). After desired treatment time, the cells were harvested and then lysed in lysis buffer (50 mM Tris-HCl, 150 mM NaCl, 0.5% NP-40, 0.5% Triton X-100) supplemented with a protease inhibitor (Sigma, P8340). The suspension was incubated on ice for 30 min and centrifuged (18,000 rcf, 15 min, 4 °C); then, the supernatant was collected, and protein concentrations were quantified via Bradford Assay using Protein Assay Dye Reagent Concentrate (BIO-RAD). […] PageRuler Plus Prestained Ladder was used for size standards. After gel electrophoresis at 140 V for 90 min, the separated proteins were transferred onto a nitrocellulose membrane at 30 V for 60 min. The membranes were probed with primary antibodies (see the Supporting Information) for 60−90 min. Blots were developed with complimentary IRDye-conjugated secondary antibodies, and the bands were visualized using an Odyssey infrared imaging system. Image processing and band intensity quantification were performed using Image Studio Lite.

[2] = target: HDAC2 (Homo sapiens, UniProt Q92769); assay: HDAC2 degradation by quantitative western blotting in HCT116 cells; details: HCT116 cells, 24 h, 0.1, 1 and 10 μM; compared with 1 at 10 μM
Procedure: as §1, §2, §3

[3] = tested on: H3K56ac; assay: Histone H3 Lys 56 acetylation (H3K56ac) western blotting; type: cell-based, human; details: HCT116 cells, 24 h, screen at 0.1, 1, 10 μM; relative to DMSO, CI-994 and 1 at 10 μM
Text: Supporting Information: Biology
Representative blots of two independent biological replicates.

[4] = target: HDAC1 (Homo sapiens, UniProt Q13547); assay: HDAC1 degradation by quantitative western blotting in HCT116 cells; details: HCT116 cells; for HDAC1 degradation in initial screen (in words): 24 h, 0.1, 1 and 10 μM, compared with 1 at 10 μM
Sequence of HDAC1 (Q13547 whole entry): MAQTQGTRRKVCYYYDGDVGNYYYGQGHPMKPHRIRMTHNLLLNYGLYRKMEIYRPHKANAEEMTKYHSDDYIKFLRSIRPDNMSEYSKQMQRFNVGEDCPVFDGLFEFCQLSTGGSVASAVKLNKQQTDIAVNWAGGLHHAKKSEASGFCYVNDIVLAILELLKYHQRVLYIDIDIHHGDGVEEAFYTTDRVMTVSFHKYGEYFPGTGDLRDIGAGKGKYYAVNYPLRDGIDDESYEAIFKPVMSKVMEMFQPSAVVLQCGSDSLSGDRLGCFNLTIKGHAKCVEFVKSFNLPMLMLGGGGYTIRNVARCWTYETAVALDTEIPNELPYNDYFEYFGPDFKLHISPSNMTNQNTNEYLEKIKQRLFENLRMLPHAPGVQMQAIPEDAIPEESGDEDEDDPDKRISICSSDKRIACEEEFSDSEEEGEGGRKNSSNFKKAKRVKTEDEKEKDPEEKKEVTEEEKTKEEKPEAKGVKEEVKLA
Procedure: as §1, §2, §3

Sequence of HDAC2 (Q92769 whole entry): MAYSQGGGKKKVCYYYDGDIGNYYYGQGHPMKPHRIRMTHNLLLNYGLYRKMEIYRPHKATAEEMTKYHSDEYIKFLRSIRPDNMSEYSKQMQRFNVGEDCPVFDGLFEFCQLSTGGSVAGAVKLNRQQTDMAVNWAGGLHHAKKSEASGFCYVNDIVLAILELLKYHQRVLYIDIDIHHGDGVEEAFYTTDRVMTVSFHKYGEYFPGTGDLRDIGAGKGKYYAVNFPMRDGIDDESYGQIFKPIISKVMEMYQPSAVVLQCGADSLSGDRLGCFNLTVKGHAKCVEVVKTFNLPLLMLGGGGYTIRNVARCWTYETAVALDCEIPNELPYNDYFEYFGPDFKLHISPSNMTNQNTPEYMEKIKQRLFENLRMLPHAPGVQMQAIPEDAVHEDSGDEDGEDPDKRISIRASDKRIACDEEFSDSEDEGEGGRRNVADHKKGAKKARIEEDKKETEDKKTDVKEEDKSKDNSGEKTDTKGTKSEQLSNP
Sequence of HDAC3 (O15379 whole entry): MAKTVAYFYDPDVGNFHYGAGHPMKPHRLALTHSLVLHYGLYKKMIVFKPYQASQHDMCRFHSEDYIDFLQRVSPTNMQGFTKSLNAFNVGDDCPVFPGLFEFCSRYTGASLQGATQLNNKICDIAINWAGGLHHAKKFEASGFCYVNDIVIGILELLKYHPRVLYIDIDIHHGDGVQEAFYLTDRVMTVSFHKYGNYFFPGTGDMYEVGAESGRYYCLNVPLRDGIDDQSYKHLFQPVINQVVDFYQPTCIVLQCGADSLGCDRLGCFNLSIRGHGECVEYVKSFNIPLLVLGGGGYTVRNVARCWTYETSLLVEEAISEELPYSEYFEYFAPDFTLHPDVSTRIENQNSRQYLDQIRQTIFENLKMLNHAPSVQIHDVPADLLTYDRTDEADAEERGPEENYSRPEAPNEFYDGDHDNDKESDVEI
Sequence of HDAC3 (Q9Y618 389-480 partner limits assumed): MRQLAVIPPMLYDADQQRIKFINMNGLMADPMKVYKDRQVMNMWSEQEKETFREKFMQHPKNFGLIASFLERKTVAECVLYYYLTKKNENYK

HDAC3 degradation in initial screen (in words) [1] | DC50 ([4]; read-out: DC50 HDAC1, 24 h, quantitative western blotting) | Molecule | HDAC2 degradation in initial screen (in words) [2] | H3K56ac levels (in words) [3] | HDAC1 degradation in initial screen (in words) [4]
generally compromised |  | Cc1ncsc1-c1ccc(CNC(=O)[C@@H]2CC(O)CN2C(=O)[C@@H](NC(=O)COCCOCCOCCOCC(=O)Nc2ccc(C(=O)Nc3ccccc3N)cc2)C(C)(C)C)cc1 (stereo in doubt) [Compound 12, N1-(4-((2-Aminophenyl)carbamoyl)phenyl)-N14-((S)-1-((2S,4S)-4-hydroxy-2-((4-(4-methylthiazol-5-yl)benzyl)carbamoyl)-pyrrolidin-1-yl)-3,3-dimethyl-1-oxobutan-2-yl)-3,6,9,12-tetraoxatetradecanediamide] | almost complete loss of HDAC1/2 degradation | did not increase H3K56ac levels compared to the dimethyl sulfoxide (DMSO) control | almost complete loss of HDAC1/2 degradation
enhanced HDAC3 degradation compared to 1 |  | Cc1ncsc1-c1ccc(CNC(=O)[C@@H]2C[C@@H](O)CN2C(=O)C(NC(=O)CCCCCCCCCCC(=O)Nc2ccc(C(=O)Nc3ccc(F)cc3N)cc2)C(C)(C)C)cc1 (stereo in doubt) [Compound 15, N1-(4-((2-Amino-4-fluorophenyl)carbamoyl)phenyl)-N12-((S)-1-((2S,4R)-4-hydroxy-2-((4-(4-methylthiazol-5-yl)benzyl)carbamoyl)-pyrrolidin-1-yl)-3,3-dimethyl-1-oxobutan-2-yl)dodecanediamide] |  |  | 
only modest HDAC3 degradation at 10 μM |  | Cc1ncsc1-c1ccc(CNC(=O)[C@@H]2C[C@@H](O)CN2C(=O)C(NC(=O)COCCOCCOCC(=O)Nc2ccc(C(=O)Nc3ccc(F)cc3N)cc2)C(C)(C)C)cc1 (stereo in doubt) [Compound 16, (2S,4R)-1-((S)-14-((4-((2-Amino-4-fluorophenyl)carbamoyl)-phenyl)amino)-2-(tert-butyl)-4,14-dioxo-6,9,12-trioxa-3-azatetradecanoyl)-4-hydroxy-N-(4-(4-methylthiazol-5-yl)benzyl)-pyrrolidine-2-carboxamide] |  |  | 
 |  | CC(=O)NC(C(=O)N1C[C@H](O)C[C@H]1C(=O)NCc1ccc(-c2scnc2C)cc1OCCCCNC(=O)CCCCC(=O)Nc1ccc(C(=O)Nc2ccccc2N)cc1)C(C)(C)C (stereo in doubt) [Compound 23, N1-(4-(2-(((2S,4R)-1-((S)-2-Acetamido-3,3-dimethylbutanoyl)-4-hydroxypyrrolidine-2-carboxamido)methyl)-5-(4-methylthiazol-5-yl)phenoxy)butyl)-N6-(4-((2-aminophenyl)carbamoyl)phenyl)-adipamide] |  | did not increase H3K56ac levels greater than the DMSO control | only modest degradation of HDAC1
 |  | CC(=O)NC(C(=O)N1C[C@H](O)C[C@H]1C(=O)NCc1ccc(-c2scnc2C)cc1OCCCCNC(=O)CCCCCCCC(=O)Nc1ccc(C(=O)Nc2ccccc2N)cc1)C(C)(C)C (stereo in doubt) [Compound 24, N1-(4-(2-(((2S,4R)-1-((S)-2-Acetamido-3,3-dimethylbutanoyl)-4-hydroxypyrrolidine-2-carboxamido)methyl)-5-(4-methylthiazol-5-yl)-phenoxy)butyl)-N9-(4-((2-aminophenyl)carbamoyl)phenyl)-nonanediamide] |  | did not increase H3K56ac levels greater than the DMSO control | only modest degradation of HDAC1
 |  | Cc1ncsc1-c1ccc(CNC(=O)[C@@H]2C[C@@H](O)CN2C(=O)[C@@H](NC(=O)CCCCCCCCCC(=O)Nc2ccc(C(=O)Nc3ccccc3N)cc2)C(C)(C)C)cc1 [Compound 4, N1-(4-((2-Aminophenyl)carbamoyl)phenyl)-N11-((S)-1-((2S,4R)-4-hydroxy-2-((4-(4-methylthiazol5-yl)benzyl)carbamoyl)pyrrolidin-1-yl)-3,3-dimethyl-1-oxobutan-2-yl)undecanediamide] |  | increased H3K56ac levels to the same degree as the 12-atom linker 1 | directly comparable to those of the 12-atom linker 1
generally compromised |  | Cc1ncsc1-c1ccc(CNC(=O)[C@@H]2C[C@@H](O)CN2C(=O)[C@@H](NC(=O)COCCOCC(=O)Nc2ccc(C(=O)Nc3ccccc3N)cc2)C(C)(C)C)cc1 [Compound 10, (2S,4R)-1-((S)-2-(2-(2-(2-((4-((2-Aminophenyl)carbamoyl)-phenyl)amino)-2-oxoethoxy)ethoxy)acetamido)-3,3-dimethylbutanoyl)-4-hydroxy-N-(4-(4-methylthiazol-5-yl)benzyl)pyrrolidine-2-carboxamide] | almost complete loss of HDAC1/2 degradation | did not increase H3K56ac levels compared to the dimethyl sulfoxide (DMSO) control | almost complete loss of HDAC1/2 degradation
generally compromised |  | Cc1ncsc1-c1ccc(CNC(=O)[C@@H]2C[C@@H](O)CN2C(=O)[C@@H](NC(=O)COCCOCCOCC(=O)Nc2ccc(C(=O)Nc3ccccc3N)cc2)C(C)(C)C)cc1 [Compound 11, (2S,4R)-1-((S)-14-((4-((2-Aminophenyl)carbamoyl)phenyl)-amino)-2-(tert-butyl)-4,14-dioxo-6,9,12-trioxa-3-azatetradecanoyl)-4-hydroxy-N-(4-(4-methylthiazol-5-yl)benzyl)pyrrolidine-2-carboxamide] | almost complete loss of HDAC1/2 degradation | did not increase H3K56ac levels compared to the dimethyl sulfoxide (DMSO) control | almost complete loss of HDAC1/2 degradation
 |  | Cc1ncsc1-c1ccc(CNC(=O)[C@@H]2C[C@@H](O)CN2C(=O)[C@@H](NC(=O)CCCCCCCC(=O)Nc2ccc(C(=O)Nc3cc(-c4cccs4)ccc3N)cc2)C(C)(C)C)cc1 [Compound 18, N1-(4-((2-Amino-5-(thiophen-2-yl)phenyl)carbamoyl)phenyl)-N9-((S)-1-((2S,4R)-4-hydroxy-2-((4-(4-methylthiazol-5-yl)benzyl)-carbamoyl)pyrrolidin-1-yl)-3,3-dimethyl-1-oxobutan-2-yl)-nonanediamide] | did not result in enhanced degradation potency of HDAC1/2 |  | did not result in enhanced degradation potency of HDAC1/2
 |  | Cc1ncsc1-c1ccc(CNC(=O)[C@@H]2C[C@@H](O)CN2C(=O)[C@@H](NC(=O)CCCCCCCCCCC(=O)Nc2ccc(C(=O)Nc3cc(-c4cccs4)ccc3N)cc2)C(C)(C)C)cc1 [Compound 19, N1-(4-((2-Amino-5-(thiophen-2-yl)phenyl)carbamoyl)phenyl)-N12-((S)-1-((2S,4R)-4-hydroxy-2-((4-(4-methylthiazol-5-yl)benzyl)-carbamoyl)pyrrolidin-1-yl)-3,3-dimethyl-1-oxobutan-2-yl)-dodecanediamide] | did not result in enhanced degradation potency of HDAC1/2 |  | did not result in enhanced degradation potency of HDAC1/2
 | 3.51 µM | Cc1ncsc1-c1ccc(CNC(=O)[C@@H]2C[C@@H](O)CN2C(=O)[C@@H](NC(=O)COCCOCCOCC(=O)Nc2ccc(C(=O)Nc3cc(-c4cccs4)ccc3N)cc2)C(C)(C)C)cc1 [Compound 20, (2S,4R)-1-((S)-14-((4-((2-Amino-5-(thiophen-2-yl)phenyl)-carbamoyl)phenyl)amino)-2-(tert-butyl)-4,14-dioxo-6,9,12-trioxa-3-azatetradecanoyl)-4-hydroxy-N-(4-(4-methylthiazol-5-yl)benzyl)-pyrrolidine-2-carboxamide] | did not result in enhanced degradation potency of HDAC1/2 | did increase H3K56ac to levels similar to 1 | did not result in enhanced degradation potency of HDAC1/2

Molecule | HDAC3 degradation in initial screen (in words) [1] | DC50 ([4]; read-out: DC50 HDAC1, 24 h, quantitative western blotting) | HDAC2 degradation in initial screen (in words) [2] | H3K56ac levels (in words) [3] | HDAC1 degradation in initial screen (in words) [4]
Cc1ncsc1-c1ccc(CNC(=O)[C@@H]2C[C@@H](O)CN2C(=O)[C@@H](NC(=O)COCCCCCCOCC(=O)Nc2ccc(C(=O)Nc3ccccc3N)cc2)C(C)(C)C)cc1 [Compound 8, (2S,4R)-1-((S)-2-(2-((6-(2-((4-((2-Aminophenyl)carbamoyl)-phenyl)amino)-2-oxoethoxy)hexyl)oxy)acetamido)-3,3-dimethylbutanoyl)-4-hydroxy-N-(4-(4-methylthiazol-5-yl)benzyl)pyrrolidine-2-carboxamide] | loss of HDAC3 degradation compared to 6 and 7 |  |  | matched those of CI-994 | comparable to that of 1 but not maintained at 1 μM
Cc1ncsc1-c1ccc(CNC(=O)[C@@H]2C[C@@H](O)CN2C(=O)[C@@H](NC(=O)COCCCCCCCCCOCC(=O)Nc2ccc(C(=O)Nc3ccc(F)cc3N)cc2)C(C)(C)C)cc1 [Compound 17, (2S,4R)-1-((S)-2-(2-((9-(2-((4-((2-Amino-4-fluorophenyl)-carbamoyl)phenyl)amino)-2-oxoethoxy)nonyl)oxy)acetamido)-3,3-dimethylbutanoyl)-4-hydroxy-N-(4-(4-methylthiazol-5-yl)-benzyl)pyrrolidine-2-carboxamide] | HDAC3 degradation was also enhanced at 1 μM compared to 1 |  |  | greater than twofold increase in H3K56ac compared to the DMSO control | significant HDAC1 degradation was also still observed at 1 μM
(2S,4R)-1-((S)-2-(2-((9-((4-((2-Aminophenyl)carbamoyl)phenyl)-amino)-9-oxononyl)oxy)acetamido)-3,3-dimethylbutanoyl)-4-hydroxy-N-(4-(4-methylthiazol-5-yl)benzyl)pyrrolidine-2-carboxamide [Compound 6] | significantly enhanced compared to that of 1 |  |  | increased H3K56ac to comparable or greater levels than CI-994 and 1 | 
